From patent US10626125B2, “1,1,1-trifluoro-3-hydroxypropan-2-yl carbamate derivatives as MAGL inhibitors” (PFIZER INC., priority 2017, dated 2020)
Like-named read-outs stand apart in the source and are kept apart here.

Columns and labels:
[1] = molecular target: T1, human recombinant Monoacylglycerol Lipase (Homo sapiens, UniProt Q99685); assay: MAGL enzymatic assay (IC50; 7-HCA substrate added at T=0 min or T=30 min); type: biochemical; settings: geometric mean of 2-5 determinations unless otherwise indicated
T1 sequence (Q99685 1-303): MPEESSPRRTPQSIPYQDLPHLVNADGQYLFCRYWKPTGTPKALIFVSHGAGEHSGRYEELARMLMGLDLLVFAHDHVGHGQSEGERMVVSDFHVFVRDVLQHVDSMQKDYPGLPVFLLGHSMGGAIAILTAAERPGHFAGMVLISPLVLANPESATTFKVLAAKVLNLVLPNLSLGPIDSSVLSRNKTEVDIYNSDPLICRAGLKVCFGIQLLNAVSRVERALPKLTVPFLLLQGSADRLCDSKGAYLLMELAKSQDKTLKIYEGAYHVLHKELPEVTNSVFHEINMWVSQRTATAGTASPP

[2] = molecular target: T1, human recombinant Monoacylglycerol Lipase; assay: MAGL inactivation (kinact/KI from enzyme progress curves, T=0 min protocol); settings: from plot of Kobs vs. compound concentration, geometric mean of 2-5 determinations (b: ≥6)
[3] = MAGL (T = 30 min) IC50, substrate 7-HCA added after 30 minute incubation (T=30 min)
[4] = substrate 7-HCA added immediately (T=0 min), read-out: MAGL (T = 0 min) IC50

Compound	IC50 [1, 3] [nM]	IC50 [1, 4] [nM]	MAGL kinact/KI [2]
O=C(O[C@H](CO)C(F)(F)F)N1CCC2(CC1)CC(c1ccccc1F)CO2 (single isomer, unassigned) [Example 25]	2	20	25500 1/s per M
CC(C)(C)c1cnn(C2COC3(CCN(C(=O)O[C@H](CO)C(F)(F)F)CC3)C2)c1 (single isomer, unassigned) [Example 21]	2	9	24400 1/s per M
O=C(O[C@H](CO)C(F)(F)F)N1CCC2(CC1)CC(c1ccc(F)cc1)CO2 (single isomer, unassigned) [Example 34]	4	48	7920 1/s per M
O=C(O[C@H](CO)C(F)(F)F)N1CCC2(CCC(n3cc(C(F)(F)F)cn3)CO2)CC1 (single isomer, unassigned) [Example 69]	1	10	71900 1/s per M
O=C(O[C@H](CO)C(F)(F)F)N1CCC2(CC1)CC(c1cc(C(F)F)ccn1)CO2 (single isomer, unassigned) [Example 35]	3	31	23000 1/s per M
CN(C1CC2(CCN(C(=O)O[C@H](CO)C(F)(F)F)CC2)C1)S(=O)(=O)CC1CC1 [Example 18, (2R)-1,1,1-Trifluoro-3-hydroxypropan-2-yl 2-{[(cyclopropylmethyl)sulfonyl](methyl)amino}-7-azaspiro[3.5]nonane-7-carboxylate]	4	52	14900 1/s per M
O=C(O[C@H](CO)C(F)(F)F)N1CCC2(CC1)CC(c1cccc(C(F)(F)F)n1)C2 [Example 76, (2R)-1,1,1-trifluoro-3-hydroxypropan-2-yl 2-[6-(trifluoromethyl)pyridin-2-yl]-7-azaspiro[3.5]nonane-7-carboxylate]	0.2	2	206000 1/s per M
O=C(O[C@H](CO)C(F)(F)F)N1CCC2(CC1)CC(c1ccc(F)cn1)CO2 (single isomer, unassigned) [Example 17]	26	297	1390^b 1/s per M
CN([C@H]1COC2(CCN(C(=O)O[C@H](CO)C(F)(F)F)CC2)C1)S(=O)(=O)CC1CC(F)(F)C1 [Example 57, (2R)-1,1,1-trifluoro-3-hydroxypropan-2-yl (3R)-3-[{[(3,3-difluorocyclobutyl)methyl]sulfonyl}(methyl)amino]-1-oxa-8-azaspiro[4.5]decane-8-carboxylate]	13	113	2770 1/s per M
O=C(O[C@H](CO)C(F)(F)F)N1CCC2(CC1)CC(c1ccnc(C(F)F)c1)C2 [Example 80, (2R)-1,1,1-trifluoro-3-hydroxypropan-2-yl 2-[2-(difluoromethyl)pyridin-4-yl]-7-azaspiro[3.5]nonane-7-carboxylate]	1	13	46200 1/s per M
O=C(O[C@H](CO)C(F)(F)F)N1CCC2(CC1)CC(Oc1cccc(F)c1)C2 [Example 51, (2R)-1,1,1-trifluoro-3-hydroxypropan-2-yl 2-(3-fluorophenoxy)-7-azaspiro[3.5]nonane-7-carboxylate]	0.3	4	128000 1/s per M
CN(C(=O)C1CC1)C1CC2(CCN(C(=O)O[C@H](CO)C(F)(F)F)CC2)C1 [Example 55, (2R)-1,1,1-trifluoro-3-hydroxypropan-2-yl 2-[(cyclopropylcarbonyl)(methyl)amino]-7-azaspiro[3.5]nonane-7-carboxylate]	2	30	15700 1/s per M
O=C(O[C@H](CO)C(F)(F)F)N1CCC2(CC1)CC(Oc1ccc(F)cn1)C2 [Example 88, (2R)-1,1,1-trifluoro-3-hydroxypropan-2-yl 2-[(5-fluoropyridin-2-yl)oxy]-7-azaspiro[3.5]nonane-7-carboxylate]	1	16	33000 1/s per M
N#Cc1cccc(OC2CC3(CCN(C(=O)O[C@H](CO)C(F)(F)F)CC3)C2)c1 [Example 86, (2R)-1,1,1-trifluoro-3-hydroxypropan-2-yl 2-(3-cyanophenoxy)-7-azaspiro[3.5]nonane-7-carboxylate]	0.7	9	50100 1/s per M
N#Cc1cc(C2COC3(CCN(C(=O)O[C@H](CO)C(F)(F)F)CC3)C2)ccc1F (single isomer, unassigned) [Example 28]	3	27	16900 1/s per M
CN(C(=O)C(C)(C)C)C1CC2(CCN(C(=O)O[C@H](CO)C(F)(F)F)CC2)C1 [Example 42, (2R)-1,1,1-trifluoro-3-hydroxypropan-2-yl 2-[(2,2-dimethylpropanoyl)(methyl)amino]-7-azaspiro[3.5]nonane-7-carboxylate]	0.4	4	309000 1/s per M
O=C(O[C@H](CO)C(F)(F)F)N1CCC2(CC1)CC(n1cc(C3CC3)cn1)CO2 (mixture of isomers) [Example 23, (2R)-1,1,1-trifluoro-3-hydroxypropan-2-yl 3-(4-cyclopropyl-1H-pyrazol-1-yl)-1-oxa-8-azaspiro[4.5]decane-8-carboxylate, mixture of diastereomers]	9	68	9650 1/s per M
O=C(O[C@H](CO)C(F)(F)F)N1CCC2(CC1)CC(c1ccc(F)cn1)C2 [Example 2, (2R)-1,1,1-Trifluoro-3-hydroxypropan-2-yl 2-(5-fluoropyridin-2-yl)-7-azaspiro[3.5]nonane-7-carboxylate]	2	21	33800 1/s per M
O=C(O[C@H](CO)C(F)(F)F)N1CCC2(CC1)CC(Oc1ccccc1)C2 [Example 63, (2R)-1,1,1-trifluoro-3-hydroxypropan-2-yl 2-phenoxy-7-azaspiro[3.5]nonane-7-carboxylate]	1	11	34100 1/s per M
O=C(O[C@H](CO)C(F)(F)F)N1CCC2(CC1)CC(c1cc(C(F)(F)F)ccn1)C2 [Example 83, (2R)-1,1,1-trifluoro-3-hydroxypropan-2-yl 2-[4-(trifluoromethyl)pyridin-2-yl]-7-azaspiro[3.5]nonane-7-carboxylate]	0.6	5	156000 1/s per M
O=C(O[C@H](CO)C(F)(F)F)N1CCC2(CC1)CC(n1cc(Cl)cn1)CO2 (single isomer, unassigned) [Example 22]	4	49	9780 1/s per M
O=C(O[C@H](CO)C(F)(F)F)N1CCC2(CC1)CC(c1ccc(F)cc1F)CO2 (single isomer, unassigned) [Example 33]	1	10	53400 1/s per M
O=C(O[C@H](CO)C(F)(F)F)N1CCC2(CC1)CC(n1cc(C(F)(F)F)cn1)CO2 (single isomer, unassigned) [Example 9]	3	16	32800 1/s per M
CN([C@H]1COC2(CCN(C(=O)O[C@H](CO)C(F)(F)F)CC2)C1)S(=O)(=O)C(C)(C)C [Example 6, (2R)-1,1,1-Trifluoro-3-hydroxypropan-2-yl (3R)-3-[(tert-butylsulfonyl)(methyl)amino]-1-oxa-8-azaspiro[4.5]decane-8-carboxylate]	8	98	6630^b 1/s per M
O=C(O[C@H](CO)C(F)(F)F)N1CCC2(CC1)CC(c1ccc(C(F)(F)F)nc1)C2 [Example 67, (2R)-1,1,1-trifluoro-3-hydroxypropan-2-yl 2-[6-(trifluoromethyl)pyridin-3-yl]-7-azaspiro[3.5]nonane-7-carboxylate]	2	14	60600 1/s per M
Cc1cnn(C2COC3(CCN(C(=O)O[C@H](CO)C(F)(F)F)CC3)C2)c1 (single isomer, unassigned) [Example 24]	12	115	7840 1/s per M
O=C(O[C@H](CO)C(F)(F)F)N1CCC2(CC1)CC(c1cc(C(F)F)ccn1)C2 [Example 78, (2R)-1,1,1-trifluoro-3-hydroxypropan-2-yl 2-[4-(difluoromethyl)pyridin-2-yl]-7-azaspiro[3.5]nonane-7-carboxylate]	1	9	75400 1/s per M
O=C(O[C@H](CO)C(F)(F)F)N1CCC2(CC1)CC(Cn1cc(C(F)(F)F)cn1)CO2 (single isomer, unassigned) [Example 3]	7	47	10300 1/s per M
N#Cc1ccc(C2COC3(CCN(C(=O)O[C@H](CO)C(F)(F)F)CC3)C2)c(F)c1 (single isomer, unassigned) [Example 72]	4	32	17000 1/s per M
CN(C1CC2(CCN(C(=O)O[C@H](CO)C(F)(F)F)CC2)C1)S(=O)(=O)C(C)(C)C [Example 61, (2R)-1,1,1-trifluoro-3-hydroxypropan-2-yl 2-[(tert-butylsulfonyl)(methyl)amino]-7-azaspiro[3.5]nonane-7-carboxylate]	1	9	66900 1/s per M
